# Target: T1, Interleukin-1 receptor-associated kinase 4 (Homo sapiens, UniProt Q9NWZ3)
# T1 sequence (Q9NWZ3 whole entry): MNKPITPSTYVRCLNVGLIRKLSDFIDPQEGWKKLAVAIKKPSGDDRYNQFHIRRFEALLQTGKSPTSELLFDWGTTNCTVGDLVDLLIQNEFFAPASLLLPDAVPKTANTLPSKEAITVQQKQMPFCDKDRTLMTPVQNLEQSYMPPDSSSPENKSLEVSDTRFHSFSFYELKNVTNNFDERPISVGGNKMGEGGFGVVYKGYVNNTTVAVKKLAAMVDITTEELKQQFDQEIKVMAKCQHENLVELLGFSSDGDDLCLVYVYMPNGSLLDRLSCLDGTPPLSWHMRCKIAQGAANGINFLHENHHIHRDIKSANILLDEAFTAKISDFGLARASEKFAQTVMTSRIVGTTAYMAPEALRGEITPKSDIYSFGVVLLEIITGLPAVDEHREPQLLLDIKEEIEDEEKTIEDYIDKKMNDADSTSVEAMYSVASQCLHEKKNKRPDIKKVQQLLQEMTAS
# Assay: Measurement of Human IRAK-4 Inhibitory Activity
# Protocol: For the measurement of the activity of the human IRAK-4 (Invitrogen, Cat. PV3362), phosphorylation of the IRAK-4 peptide substrate (biotin-KKKKRFSFKKSFKC) by the enzyme in the presence of 10 μM ATP (Sigma-Aldrich, Cat. A7699) was measured by the TR-FRET method. The enzymatic reaction was performed in a reaction buffer containing 50 mM HEPES (pH 7.2), 1 mM DTT, 0.1 mM Na3VO4, 5 mM MgCl2, 1 mM MnCl2, and 0.1% bovine serum albumin. For the measurement of the IRAK-4 inhibitory activity, a test compound was added to the reaction buffer containing 1 nM IRAK-4, 0.5 μM peptide substrate, and 10 μM ATP, and the mixture was incubated at 23° C. for 30 minutes. Then, a detection solution containing an antibody labeled with europium cryptate (0.3 μg/mL, the antibody was prepared by using the IRAK-4 peptide substrate as the antigen), streptavidin-XL665 (2 μg/mL, CisBio, Cat. 610SAXLB), 50 mM HEPES (pH 7.2), 0.1% BSA, 120 mM KF, and 66.7 mM EDTA (all the concentrations of the reagents are final concentrations) was added to terminate the reaction, and then the mixture was further incubated at 23° C. for 60 minutes.
row,Structure (SMILES),IC50 [nM]
1,"CC(C)(C)OC1CC(C(=O)Nc2cc3cc(-c4cnc(CO[C@H]5CCC[C@@H]5O)nc4)ccn3n2)C1 (some centres not stated) [US20240025893, Examplee-03-01]",1.75
2,"CO[C@H]1C[C@@H](C(=O)Nc2nc3ccc(-c4cnc(CO[C@H]5CCC[C@@H]5O)nc4)cc3s2)C1 [US20240025893, Example a-01-06]",3.29

# Source: BindingDB's records for patent US20240025893 (Asahi Kasei Pharma, 2024)
